The record followed here is the NIST ThermoML archive (doi:10.1021/acs.jced.5b00542).

± gives the expanded uncertainty stated by the source.

As a reminder, the mass density is the mass of a sample divided by its volume.

The conditions of the data set: 298.15 K; 101.33 kPa; Liquid; Vibrating tube method.
Take `c1ccccc1` [benzene]: the mass density is 874 ± 20 kg/m3. For `C1CCCCC1` [cyclohexane] the value was 779 ± 20 kg/m3; for `CCCCCC` [hexane], 659 ± 20 kg/m3. As for `CC(C)O` [propan-2-ol], the figure is 798 ± 20 kg/m3.
